# Laboratory results reported in ChEMBL document CHEMBL5291721, “A preclinical secondary pharmacology resource illuminates target-adverse drug reaction associations of marketed drugs” (Nat Commun, 2023).
# Columns and labels:
# [1] = biological target: T1, Adenosine receptor A3 (Homo sapiens, UniProt P0DMS8)
# T1 sequence (P0DMS8 whole entry): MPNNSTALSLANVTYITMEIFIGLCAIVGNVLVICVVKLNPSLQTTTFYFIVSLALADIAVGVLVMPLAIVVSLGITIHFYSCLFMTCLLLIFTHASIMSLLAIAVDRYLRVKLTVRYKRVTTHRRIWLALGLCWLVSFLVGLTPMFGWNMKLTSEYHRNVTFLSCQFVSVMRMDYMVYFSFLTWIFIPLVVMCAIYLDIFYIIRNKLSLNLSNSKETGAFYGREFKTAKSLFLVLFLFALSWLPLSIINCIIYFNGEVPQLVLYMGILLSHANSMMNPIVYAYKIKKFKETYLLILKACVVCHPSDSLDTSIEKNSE
# [2] = biological target: T2, Alpha-1A adrenergic receptor (Homo sapiens, UniProt P35348); format: functional, cell-based
# T2 sequence (P35348 whole entry): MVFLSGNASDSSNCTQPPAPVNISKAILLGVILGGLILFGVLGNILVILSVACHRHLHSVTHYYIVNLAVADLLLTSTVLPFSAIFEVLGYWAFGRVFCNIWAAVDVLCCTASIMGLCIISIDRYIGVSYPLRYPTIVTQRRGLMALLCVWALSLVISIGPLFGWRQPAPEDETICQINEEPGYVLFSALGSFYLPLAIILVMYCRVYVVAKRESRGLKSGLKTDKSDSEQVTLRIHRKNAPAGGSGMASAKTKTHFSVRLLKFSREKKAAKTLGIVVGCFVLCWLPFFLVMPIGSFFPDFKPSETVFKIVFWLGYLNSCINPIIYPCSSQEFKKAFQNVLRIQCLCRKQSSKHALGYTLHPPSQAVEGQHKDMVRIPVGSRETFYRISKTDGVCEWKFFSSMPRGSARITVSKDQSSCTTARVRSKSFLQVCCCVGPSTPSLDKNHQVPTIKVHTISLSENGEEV
# [3] = biological target: T3, Alpha-2A adrenergic receptor (Homo sapiens, UniProt P08913)
# T3 sequence (P08913 whole entry): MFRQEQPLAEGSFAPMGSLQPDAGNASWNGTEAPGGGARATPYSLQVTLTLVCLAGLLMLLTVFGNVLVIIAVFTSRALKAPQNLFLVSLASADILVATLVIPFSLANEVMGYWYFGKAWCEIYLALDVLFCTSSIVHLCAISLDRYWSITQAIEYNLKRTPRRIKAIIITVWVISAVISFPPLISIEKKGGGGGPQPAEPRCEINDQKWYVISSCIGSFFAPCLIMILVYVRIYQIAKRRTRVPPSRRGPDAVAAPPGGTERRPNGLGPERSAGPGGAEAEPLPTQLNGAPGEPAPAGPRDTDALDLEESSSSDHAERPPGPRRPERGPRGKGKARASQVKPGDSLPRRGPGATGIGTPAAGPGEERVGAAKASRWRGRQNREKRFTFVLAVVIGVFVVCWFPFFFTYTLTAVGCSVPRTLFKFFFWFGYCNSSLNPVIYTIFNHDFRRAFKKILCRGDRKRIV
# [4] = biological target: 3',5'-cyclic-AMP phosphodiesterase 4A (Homo sapiens, UniProt P27815); format: functional
# [5] = biological target: T4, Progesterone receptor (Homo sapiens, UniProt P06401)
# T4 sequence (P06401 whole entry): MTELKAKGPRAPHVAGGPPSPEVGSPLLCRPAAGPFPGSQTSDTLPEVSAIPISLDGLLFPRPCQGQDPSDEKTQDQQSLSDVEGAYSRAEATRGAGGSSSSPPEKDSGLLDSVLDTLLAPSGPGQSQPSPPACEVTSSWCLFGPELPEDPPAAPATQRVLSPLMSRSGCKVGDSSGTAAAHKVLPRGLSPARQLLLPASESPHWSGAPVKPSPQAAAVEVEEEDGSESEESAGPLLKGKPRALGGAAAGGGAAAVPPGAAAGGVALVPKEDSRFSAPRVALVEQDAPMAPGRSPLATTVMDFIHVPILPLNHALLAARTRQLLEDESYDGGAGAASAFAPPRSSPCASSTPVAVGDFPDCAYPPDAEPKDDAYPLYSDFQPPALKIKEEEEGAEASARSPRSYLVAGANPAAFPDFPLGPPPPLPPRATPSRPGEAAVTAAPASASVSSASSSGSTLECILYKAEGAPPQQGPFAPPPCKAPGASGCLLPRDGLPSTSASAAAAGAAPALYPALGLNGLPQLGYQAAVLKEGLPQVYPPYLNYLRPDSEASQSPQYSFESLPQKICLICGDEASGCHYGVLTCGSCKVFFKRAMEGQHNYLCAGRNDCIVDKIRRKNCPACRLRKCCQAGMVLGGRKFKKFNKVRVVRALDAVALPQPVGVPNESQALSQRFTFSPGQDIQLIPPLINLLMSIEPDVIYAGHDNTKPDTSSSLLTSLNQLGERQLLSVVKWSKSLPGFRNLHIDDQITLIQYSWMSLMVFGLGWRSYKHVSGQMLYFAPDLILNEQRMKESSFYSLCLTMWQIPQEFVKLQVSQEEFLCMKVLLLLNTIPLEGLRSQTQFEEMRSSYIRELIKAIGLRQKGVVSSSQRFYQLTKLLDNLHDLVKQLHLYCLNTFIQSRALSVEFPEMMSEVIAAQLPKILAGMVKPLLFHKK
# [6] = biological target: Adenosine receptor A2a (Homo sapiens, UniProt P29274)
# [7] = biological target: T2, Alpha-1A adrenergic receptor; format: functional, cell-based; remark: listed apart in the source
# [8] = biological target: Neuronal acetylcholine receptor subunit alpha-4 (Homo sapiens, UniProt P43681)
# [9] = biological target: Melanocortin receptor 3 (Homo sapiens, UniProt P41968)
# [10] = biological target: Motilin receptor (Homo sapiens, UniProt O43193)
# Further: assay procedure not described here.
# Chain of 3',5'-cyclic-AMP phosphodiesterase 4A (P27815 whole entry): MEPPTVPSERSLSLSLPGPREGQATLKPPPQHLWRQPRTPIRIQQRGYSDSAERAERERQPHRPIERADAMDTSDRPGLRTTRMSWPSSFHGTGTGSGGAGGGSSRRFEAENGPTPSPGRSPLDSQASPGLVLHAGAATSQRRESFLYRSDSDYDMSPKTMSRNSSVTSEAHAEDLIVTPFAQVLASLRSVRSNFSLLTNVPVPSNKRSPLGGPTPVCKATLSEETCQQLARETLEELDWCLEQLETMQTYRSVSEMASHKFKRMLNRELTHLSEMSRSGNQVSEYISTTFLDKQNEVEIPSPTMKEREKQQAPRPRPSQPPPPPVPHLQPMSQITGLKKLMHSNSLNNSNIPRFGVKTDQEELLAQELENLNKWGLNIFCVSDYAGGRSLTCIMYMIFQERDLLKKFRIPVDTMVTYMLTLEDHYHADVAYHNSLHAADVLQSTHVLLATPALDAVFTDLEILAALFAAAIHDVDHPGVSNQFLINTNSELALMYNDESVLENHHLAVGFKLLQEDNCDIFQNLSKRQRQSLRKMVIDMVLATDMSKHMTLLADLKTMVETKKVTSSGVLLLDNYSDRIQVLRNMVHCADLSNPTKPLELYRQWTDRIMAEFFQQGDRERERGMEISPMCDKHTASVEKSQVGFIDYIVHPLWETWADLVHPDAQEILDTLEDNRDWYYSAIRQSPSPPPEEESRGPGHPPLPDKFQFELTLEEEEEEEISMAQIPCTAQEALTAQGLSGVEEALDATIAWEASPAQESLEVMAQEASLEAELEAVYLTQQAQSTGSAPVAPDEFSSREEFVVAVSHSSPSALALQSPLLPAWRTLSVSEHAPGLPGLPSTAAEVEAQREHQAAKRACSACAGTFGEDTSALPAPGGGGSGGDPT
# Chain of Adenosine receptor A2a (P29274 whole entry): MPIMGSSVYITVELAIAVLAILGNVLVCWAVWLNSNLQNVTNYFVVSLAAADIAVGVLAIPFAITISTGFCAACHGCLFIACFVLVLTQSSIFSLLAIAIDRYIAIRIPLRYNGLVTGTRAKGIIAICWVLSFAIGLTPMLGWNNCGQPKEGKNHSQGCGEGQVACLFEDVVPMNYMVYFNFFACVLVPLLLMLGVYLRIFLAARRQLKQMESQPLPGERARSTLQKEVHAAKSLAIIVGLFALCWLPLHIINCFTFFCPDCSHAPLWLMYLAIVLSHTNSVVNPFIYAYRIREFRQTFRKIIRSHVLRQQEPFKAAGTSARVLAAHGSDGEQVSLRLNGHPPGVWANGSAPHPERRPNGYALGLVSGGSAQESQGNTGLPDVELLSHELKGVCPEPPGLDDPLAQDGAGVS
# Chain of Motilin receptor (O43193 whole entry): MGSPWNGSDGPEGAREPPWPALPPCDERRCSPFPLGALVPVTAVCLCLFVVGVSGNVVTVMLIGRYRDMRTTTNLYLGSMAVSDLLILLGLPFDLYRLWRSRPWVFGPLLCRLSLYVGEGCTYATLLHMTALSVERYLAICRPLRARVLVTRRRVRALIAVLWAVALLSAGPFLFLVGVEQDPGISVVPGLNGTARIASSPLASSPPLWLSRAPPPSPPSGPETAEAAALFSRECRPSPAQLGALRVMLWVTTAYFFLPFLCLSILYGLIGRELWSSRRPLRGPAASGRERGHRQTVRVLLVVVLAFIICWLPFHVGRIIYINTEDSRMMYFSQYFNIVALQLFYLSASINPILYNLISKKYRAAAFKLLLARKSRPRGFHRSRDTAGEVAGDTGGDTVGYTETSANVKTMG
# Chain of Neuronal acetylcholine receptor subunit alpha-4 (P43681 whole entry): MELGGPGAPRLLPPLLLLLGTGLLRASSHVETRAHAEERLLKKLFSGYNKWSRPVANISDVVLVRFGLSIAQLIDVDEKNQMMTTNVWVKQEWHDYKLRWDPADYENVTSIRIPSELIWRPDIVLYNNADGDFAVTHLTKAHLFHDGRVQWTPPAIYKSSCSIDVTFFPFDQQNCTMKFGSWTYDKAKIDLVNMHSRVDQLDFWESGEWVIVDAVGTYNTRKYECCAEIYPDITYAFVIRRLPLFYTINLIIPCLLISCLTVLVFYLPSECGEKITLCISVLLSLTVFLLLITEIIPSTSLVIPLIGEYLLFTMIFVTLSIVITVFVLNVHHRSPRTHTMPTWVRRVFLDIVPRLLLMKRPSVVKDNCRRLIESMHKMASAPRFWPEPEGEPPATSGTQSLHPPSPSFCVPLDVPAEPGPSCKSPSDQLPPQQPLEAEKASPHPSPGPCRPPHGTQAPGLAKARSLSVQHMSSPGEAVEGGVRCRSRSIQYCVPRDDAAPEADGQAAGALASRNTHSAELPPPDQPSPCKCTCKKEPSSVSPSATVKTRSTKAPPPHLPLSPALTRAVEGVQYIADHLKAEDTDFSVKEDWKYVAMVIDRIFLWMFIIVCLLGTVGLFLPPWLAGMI
# Chain of Melanocortin receptor 3 (P41968 whole entry): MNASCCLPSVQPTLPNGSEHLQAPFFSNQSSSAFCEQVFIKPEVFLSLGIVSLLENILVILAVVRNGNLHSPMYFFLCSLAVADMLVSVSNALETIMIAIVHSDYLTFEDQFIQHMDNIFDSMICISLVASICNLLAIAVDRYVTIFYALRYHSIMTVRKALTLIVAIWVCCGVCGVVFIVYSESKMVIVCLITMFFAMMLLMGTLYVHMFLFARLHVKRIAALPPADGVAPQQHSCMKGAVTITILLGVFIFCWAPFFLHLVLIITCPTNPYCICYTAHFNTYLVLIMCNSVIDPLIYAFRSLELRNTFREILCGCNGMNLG
Structure (SMILES),AC50 [1] [µM],AC50 [2] [µM],AC50 [3] [µM],AC50 [4] [µM],AC50 [5] [µM],AC50 [6] [µM],AC50 [7] [µM],AC50 [8] [µM],AC50 [9] [µM],AC50 [10] [µM]
FC(F)(F)c1ccc(CNc2ccc(Cc3c[nH]c4ncc(Cl)cc34)cn2)cn1 [PEXIDARTINIB],3.69,1.8,17.1,> 30,9.95,,,,,
CN1CCC(=C2c3ccccc3Sc3ccccc32)CC1 [PIMETHIXENE],25.9,0.121,0.0422,> 30,> 30,,,,,
CC(C)(O)CNc1nc(Nc2ccnc(C(F)(F)F)c2)nc(-c2cccc(C(F)(F)F)n2)n1 [ENASIDENIB],0.003,20.3,> 30,> 30,> 30,,,,,
CNC(=O)Oc1cccc2ccccc12 [CARBARIL],> 30,> 30,> 30,> 30,14.3,,,,,
C[C@]1(Cn2ccnn2)[C@H](C(=O)O)N2C(=O)C[C@H]2S1(=O)=O [TAZOBACTAM],> 30,> 30,> 30,> 30,> 30,,,,,
C[N+](C)(C)C[C@H](O)CC(=O)[O-] [LEVOCARNITINE],> 30,> 30,> 30,> 30,> 30,,,,,
CC[C@H](C)C[C@H](C)CCCCCCCCC(=O)N[C@H]1C[C@@H](O)[C@@H](NCCN)NC(=O)[C@@H]2[C@@H](O)CCN2C(=O)[C@H]([C@H](O)CCN)NC(=O)[C@H]([C@H](O)[C@@H](O)c2ccc(O)cc2)NC(=O)[C@@H]2C[C@@H](O)CN2C(=O)[C@H]([C@@H](C)O)NC1=O [CASPOFUNGIN],11.3,13,> 30,> 30,5.7,,,,,
CC[C@H]1OC(=O)[C@H](C)C(=O)[C@H](C)[C@@H](O[C@@H]2O[C@H](C)C[C@H](N(C)C)[C@H]2O)[C@](C)(OC)C[C@@H](C)C(=O)[C@H](C)[C@H]2N(CCCCn3cnc(-c4cccnc4)c3)C(=O)O[C@]12C [TELITHROMYCIN],> 30,> 30,> 30,> 30,> 30,,,,,
OC[C@H]1O[C@@H](c2ccc(F)c(Cc3cc4ccccc4s3)c2)[C@H](O)[C@@H](O)[C@@H]1O [IPRAGLIFLOZIN],> 30,22.2,> 30,> 30,> 30,,,,,
CC(=O)Oc1cc(C(F)(F)F)ccc1C(=O)O [TRIFLUSAL],> 30,> 30,> 30,> 30,> 30,,,,,
COc1cc2nccc(Oc3ccc(NC(=O)C4(C(=O)Nc5ccc(F)cc5)CC4)cc3)c2cc1OC [CABOZANTINIB],0.379,9.03,> 30,> 30,> 10,> 30,> 30,> 30,> 30,> 30
C[C@H]1O[C@@H](n2cc(F)c(=O)[nH]c2=O)[C@H](O)[C@@H]1O [DOXIFLURIDINE],> 30,> 30,> 30,> 30,> 30,,,,,
